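Following 48 hours of exposure in 96-well plates, responses at five concentrations were used to interpolate endpoints linearly. GI50 marks 50% less growth.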 The source made the active and inactive calls. Cut-off read from the data, not from the text of the source: active = GI50 up to about 1.1 µM and inactive = higher.
What was measured:
Assay in all cases: NCI-60 cell line screen, 48 h
ACHN = system: ACHN
SR = system: SR
K562 = system: K562
UO-31 = system: UO-31
M14 = system: M14
IGROV-1 = system: IGROV-1
SK-MEL-5 = system: SK-MEL-5
HOP-92 = system: HOP-92
OVCAR-3 = system: OVCAR-3
LXFL 529 = system: LXFL 529
SNB-75 = system: SNB-75
HL-60 = system: HL-60
HCT-116 = system: HCT-116
XF498 = system: XF498
SK-MEL-28 = system: SK-MEL-28
EKVX = system: EKVX
MOLT-4 = system: MOLT-4
RXF 631 = system: RXF 631
A549 = system: A549
DMS-273 = system: DMS-273
SF-295 = system: SF-295
UACC-62 = system: UACC-62
NCI-H226 = system: NCI-H226
HCC 2998 = system: HCC 2998
SF-539 = system: SF-539
SK-MEL-2 = system: SK-MEL-2
Malme-3M = system: Malme-3M
SK-OV-3 = system: SK-OV-3
RPMI-8226 = system: RPMI-8226
SW-620 = system: SW-620
HCT-15 = system: HCT-15
OVCAR-8 = system: OVCAR-8
NCI-H460 = system: NCI-H460
U-251 = system: U-251
UACC-257 = system: UACC-257
CCRF-CEM = system: CCRF-CEM
CAKI-1 = system: CAKI-1
TK-10 = system: TK-10
SN12C = system: SN12C
NCI-H23 = system: NCI-H23
M19-MEL = system: M19-MEL
KM12 = system: KM12
OVCAR-5 = system: OVCAR-5
KM-20L2 = system: KM-20L2
NCI-H522 = system: NCI-H522
LOX IMVI = system: LOX IMVI
786-0 = system: 786-0
COLO 205 = system: COLO 205
HOP-18 = system: HOP-18
DLD-1 = system: DLD-1
HT-29 = system: HT-29
HOP-62 = system: HOP-62
SNB-19 = system: SNB-19
OVCAR-4 = system: OVCAR-4
SNB-78 = system: SNB-78
SF-268 = system: SF-268
RXF 393 = system: RXF 393
A498 = system: A498
DMS-114 = system: DMS-114

C=CCC1C(=O)CC2(C)C(CC=C)C(=O)CC12C (stereo unspecified)
GI50 (ACHN): > 100 µM (inactive) | GI50 (SR): > 100 µM (inactive) | GI50 (K562): > 100 µM (inactive) | GI50 (UO-31): > 100 µM (inactive) | GI50 (M14): > 100 µM (inactive) | GI50 (IGROV-1): > 100 µM (inactive) | GI50 (SK-MEL-5): > 100 µM (inactive) | GI50 (HOP-92): > 100 µM (inactive) | GI50 (OVCAR-3): > 100 µM (inactive) | GI50 (LXFL 529): > 100 µM (inactive) | GI50 (SNB-75): > 100 µM (inactive) | GI50 (HL-60): > 100 µM (inactive) | GI50 (HCT-116): > 100 µM (inactive) | GI50 (XF498): > 100 µM (inactive) | GI50 (SK-MEL-28): > 100 µM (inactive) | GI50 (EKVX): > 100 µM (inactive) | GI50 (MOLT-4): > 100 µM (inactive) | GI50 (RXF 631): > 100 µM (inactive) | GI50 (A549): > 100 µM (inactive) | GI50 (DMS-273): > 100 µM (inactive) | GI50 (SF-295): > 100 µM (inactive) | GI50 (UACC-62): > 100 µM (inactive) | GI50 (NCI-H226): > 100 µM (inactive) | GI50 (HCC 2998): > 100 µM (inactive) | GI50 (SF-539): > 100 µM (inactive) | GI50 (SK-MEL-2): > 100 µM (inactive) | GI50 (Malme-3M): > 100 µM (inactive) | GI50 (SK-OV-3): > 100 µM (inactive) | GI50 (RPMI-8226): > 100 µM (inactive) | GI50 (SW-620): > 100 µM (inactive) | GI50 (HCT-15): > 100 µM | GI50 (OVCAR-8): > 100 µM (inactive) | GI50 (NCI-H460): > 100 µM (inactive) | GI50 (U-251): > 100 µM (inactive) | GI50 (UACC-257): > 100 µM (inactive) | GI50 (CCRF-CEM): > 100 µM (inactive) | GI50 (CAKI-1): > 100 µM (inactive) | GI50 (TK-10): > 100 µM (inactive) | GI50 (SN12C): > 100 µM (inactive) | GI50 (NCI-H23): > 100 µM (inactive) | GI50 (M19-MEL): > 100 µM (inactive) | GI50 (KM12): > 100 µM (inactive) | GI50 (OVCAR-5): > 100 µM (inactive) | GI50 (KM-20L2): > 100 µM (inactive) | GI50 (NCI-H522): > 100 µM (inactive) | GI50 (LOX IMVI): > 100 µM (inactive) | GI50 (786-0): > 100 µM (inactive) | GI50 (COLO 205): > 100 µM (inactive) | GI50 (HOP-18): > 100 µM (inactive) | GI50 (DLD-1): > 100 µM (inactive) | GI50 (HT-29): > 100 µM (inactive) | GI50 (HOP-62): > 100 µM (inactive) | GI50 (SNB-19): > 100 µM (inactive) | GI50 (OVCAR-4): > 100 µM (inactive)

C[C@]12CCC3[C@@H](CC[C@@H]4c5nonc5CC[C@]34C)C1C/C(=N/O)C2=O (stereo partly specified)
GI50 (ACHN): 41 µM (inactive) | GI50 (K562): > 100 µM (inactive) | GI50 (UO-31): 5.41 µM (inactive) | GI50 (M14): 63.5 µM (inactive) | GI50 (IGROV-1): > 100 µM (inactive) | GI50 (SK-MEL-5): > 100 µM (inactive) | GI50 (HOP-92): 46.5 µM (inactive) | GI50 (OVCAR-3): 39.7 µM (inactive) | GI50 (LXFL 529): 18.6 µM (inactive) | GI50 (SNB-75): 0.0885 µM (active) | GI50 (HL-60): 2.12 µM (inactive) | GI50 (SNB-78): > 100 µM (inactive) | GI50 (HCT-116): > 100 µM (inactive) | GI50 (XF498): 11.5 µM (inactive) | GI50 (SK-MEL-28): 27.1 µM (inactive) | GI50 (EKVX): 52.5 µM (inactive) | GI50 (MOLT-4): 59.7 µM (inactive) | GI50 (RXF 631): > 100 µM (inactive) | GI50 (A549): > 100 µM (inactive) | GI50 (DMS-273): > 100 µM (inactive) | GI50 (SF-295): 52.2 µM (inactive) | GI50 (UACC-62): 63.7 µM (inactive) | GI50 (NCI-H226): > 100 µM (inactive) | GI50 (SF-539): 71 µM (inactive) | GI50 (SF-268): 11.2 µM (inactive) | GI50 (SK-MEL-2): 1.53 µM (inactive) | GI50 (Malme-3M): > 100 µM (inactive) | GI50 (SK-OV-3): 38.8 µM (inactive) | GI50 (RPMI-8226): 9.48 µM (inactive) | GI50 (SW-620): > 100 µM (inactive) | GI50 (HCT-15): > 100 µM | GI50 (OVCAR-8): > 100 µM (inactive) | GI50 (NCI-H460): > 100 µM (inactive) | GI50 (U-251): > 100 µM (inactive) | GI50 (UACC-257): > 100 µM (inactive) | GI50 (CCRF-CEM): 56.5 µM (inactive) | GI50 (CAKI-1): 4.34 µM (inactive) | GI50 (RXF 393): 14.1 µM (inactive) | GI50 (TK-10): 51.1 µM (inactive) | GI50 (SN12C): > 100 µM (inactive) | GI50 (NCI-H23): > 100 µM (inactive) | GI50 (M19-MEL): > 100 µM (inactive) | GI50 (A498): > 100 µM (inactive) | GI50 (KM12): > 100 µM (inactive) | GI50 (OVCAR-5): > 100 µM (inactive) | GI50 (KM-20L2): > 100 µM (inactive) | GI50 (NCI-H522): 24.6 µM (inactive) | GI50 (DMS-114): > 100 µM (inactive) | GI50 (LOX IMVI): 11.2 µM (inactive) | GI50 (786-0): > 100 µM (inactive) | GI50 (COLO 205): > 100 µM (inactive) | GI50 (HOP-18): > 100 µM (inactive) | GI50 (HT-29): > 100 µM (inactive) | GI50 (HOP-62): > 100 µM (inactive) | GI50 (SNB-19): > 100 µM (inactive) | GI50 (OVCAR-4): 76 µM (inactive)

c1ccc2c(NCCCCCCNc3cccc4ccccc34)cccc2c1
GI50 (ACHN): > 100 µM (inactive) | GI50 (K562): > 100 µM (inactive) | GI50 (UO-31): 98.2 µM (inactive) | GI50 (M14): > 100 µM (inactive) | GI50 (IGROV-1): > 100 µM (inactive) | GI50 (SK-MEL-5): 60.3 µM (inactive) | GI50 (HOP-92): 50.7 µM (inactive) | GI50 (OVCAR-3): > 100 µM (inactive) | GI50 (LXFL 529): > 100 µM (inactive) | GI50 (SNB-75): 2.77 µM (inactive) | GI50 (HL-60): 51.5 µM (inactive) | GI50 (SNB-78): > 100 µM (inactive) | GI50 (HCT-116): > 100 µM (inactive) | GI50 (XF498): > 100 µM (inactive) | GI50 (SK-MEL-28): > 100 µM (inactive) | GI50 (EKVX): > 100 µM (inactive) | GI50 (MOLT-4): 44.3 µM (inactive) | GI50 (RXF 631): > 100 µM (inactive) | GI50 (A549): 42 µM (inactive) | GI50 (DMS-273): > 100 µM (inactive) | GI50 (SF-295): > 100 µM (inactive) | GI50 (UACC-62): 64.6 µM (inactive) | GI50 (NCI-H226): > 100 µM (inactive) | GI50 (HCC 2998): > 100 µM (inactive) | GI50 (SF-539): > 100 µM (inactive) | GI50 (SF-268): > 100 µM (inactive) | GI50 (SK-MEL-2): > 100 µM (inactive) | GI50 (Malme-3M): > 100 µM (inactive) | GI50 (SK-OV-3): > 100 µM (inactive) | GI50 (RPMI-8226): 87.3 µM (inactive) | GI50 (SW-620): 74.5 µM (inactive) | GI50 (HCT-15): > 100 µM | GI50 (OVCAR-8): > 100 µM (inactive) | GI50 (NCI-H460): > 100 µM (inactive) | GI50 (U-251): > 100 µM (inactive) | GI50 (UACC-257): > 100 µM (inactive) | GI50 (CCRF-CEM): 38.8 µM (inactive) | GI50 (CAKI-1): > 100 µM (inactive) | GI50 (TK-10): > 100 µM (inactive) | GI50 (SN12C): > 100 µM (inactive) | GI50 (NCI-H23): 75.3 µM (inactive) | GI50 (M19-MEL): > 100 µM (inactive) | GI50 (A498): > 100 µM (inactive) | GI50 (KM12): > 100 µM (inactive) | GI50 (OVCAR-5): > 100 µM (inactive) | GI50 (KM-20L2): > 100 µM (inactive) | GI50 (NCI-H522): > 100 µM (inactive) | GI50 (DMS-114): 49.1 µM (inactive) | GI50 (786-0): > 100 µM (inactive) | GI50 (COLO 205): > 100 µM (inactive) | GI50 (HOP-18): > 100 µM (inactive) | GI50 (DLD-1): > 100 µM (inactive) | GI50 (HT-29): > 100 µM (inactive) | GI50 (HOP-62): > 100 µM (inactive) | GI50 (SNB-19): > 100 µM (inactive) | GI50 (OVCAR-4): 66.1 µM (inactive)
